The compounds below were run on asymmetric di-methyl PABP1 in RKO cells (assay: RKO methylation assay (In Cell Western for asymmetric di-methyl PABP1)). Conditions: Homo sapiens, 48 hours incubation, read-out: Cellular IC50.
Assay type: cell-based
Description: RKO adherent cells were purchased from ATCC (American Type Culture Collection), Manassas, Va., USA. DMEM/Glutamax medium, penicillin-streptomycin, heat inactivated fetal bovine serum, 0.05% trypsin and D-PBS were purchased from Life Technologies, Grand Island, N.Y., USA. Odyssey blocking buffer, 800CW goat anti-rabbit IgG (H+L) antibody, and Licor Odyssey infrared scanner were purchased from Licor Biosciences, Lincoln, Nebr., USA. Asymmetric di-methyl PABP1 antibody was purchased from Cell Signaling Technology, Danvers, Mass., USA. Methanol was purchased from VWR, Franklin, Mass., USA. 10% Tween 20 was purchased from KPL, Inc., Gaithersburg, Md., USA. Paraformaldehyde (PFA) was purchased from EM Sciences. DRAQ5 was purchased from Biostatus Limited, Leicestershire, UK.
RKO adherent cells were maintained in growth medium (DMEM/Glutamax medium supplemented with 10% v/v heat inactivated fetal bovine serum and 100 units/mL penicillin-streptomycin) and cultured at 37° C. under 5% CO2.
Compound (100 nL) from a 96-well source plate was added directly to 384 well cell plate. Plates were incubated at 37° C., 5% CO2 for 48 hours. After two days of incubation, plates were brought to room temperature outside of the incubator for ten minutes and blotted on paper towels to remove cell media. Cells were fixed for 20 minutes at room temperature by adding 50 ul of 8% PFA followed by aspiration of supernatant with the Biotek EL406 plate washer. Cells were then permeabilized by addition of 50 μL of ice cold 100% methanol directly to each well and incubated for 30 min at room temperature. After 30 min, plates were transferred to a Biotek EL406 plate washer and washed 2 times with 100 μL per well of wash buffer (IX PBS). Next 60 μL per well of Odyssey blocking buffer (Odyssey Buffer with 0.1% Tween 20 (v/v)) were added to each plate and incubated 1 hour at room temperature. Blocking buffer was removed and 20 μL per well of primary antibody was added (asymmetric-methyl PABP1) diluted 1:400 in Odyssey buffer with 0.1% Tween 20 (v/v)) and plates were incubated overnight (16 hours) at 4° C. Plates were washed 5 times with 100 μL per well of wash buffer. Next 20 μL per well of secondary antibody was added (1:800 800CW goat anti-rabbit IgG (H+L) antibody, 1:2000 DRAQ5 in Odyssey buffer with 0.1% Tween 20 (v/v)) and incubated for 1 hour at room temperature. The plates were washed 5 times with 100 μL per well wash buffer then 2 times with 100 μL per well of water. Plates were allowed to dry at room temperature then imaged on the Licor Odyssey machine which measures integrated intensity at 700 nm and 800 nm wavelengths. Both 700 and 800 channels were scanned.
First, the ratio for each well was determined by:
Each plate included fourteen control wells of DMSO only treatment (minimum inhibition) as well as fourteen control wells for maximum inhibition treated with 20 μM of a reference compound. The average of the ratio values for each control type was calculated and used to determine the percent […] for each test well in the plate. Reference compound was serially diluted three-fold in DMSO for a total of nine test concentrations, beginning at 20 μM.
Percent inhibition was determined and IC50 curves were generated using triplicate wells per concentration of compound.

IC50 [nM]	Compound
> 20000	CC(C)c1cnn2c(N3CCOCC3)cc(-c3cccc(OC[C@@H](O)CN)c3)nc12 [Example 9-8]
> 20000	CNCC(O)COc1cccc(-c2cc(N[C@@H]3CCOC3)n3ncc(C(C)C)c3n2)c1 (stereo partly shown) [Example 11-6]
> 20000	CNCC(O)COc1cc(O)cc(-c2cc(N3CCOCC3)c3cnn(C(C)C)c3n2)c1 (stereo not shown) [Example 6-4]
> 20000	CNCC(O)COc1cccc(-c2cc(NS(=O)(=O)N(C)C)c3cnn(C(C)C)c3n2)c1 (stereo not shown) [Example 27-9]
> 20000	CNCC(O)COc1cccc(-c2nc(NCc3cccnc3)c3cnn(C4CC4)c3n2)c1 (stereo not shown) [Example 17-9]
> 20000	CC(C)n1ncc2c(N3CCOCC3)cc(-c3cccc(SCC(O)CN)c3)nc21 (stereo not shown) [Example 21-9]
> 20000	CC(C)c1cnn2c(N3CCOCC3)cc(-c3cccc(OCC(O)CN)c3)nc12 (stereo not shown) [Example 4-8]
> 20000	CNCC(O)COc1cc(Cl)cc(-c2cc(N(C)C3CCOCC3)n3ncc(C(C)(C)C)c3n2)c1 (stereo not shown) [Example 9-9]
> 20000	CNCC(O)COc1cc(OC)cc(-c2cc(NC3CCOCC3)n3ncc(C(C)C)c3n2)c1 (stereo not shown) [Example 34-6]
10000 to 20000	CNCC(O)COc1cccc(-c2nc(N3CCOCC3)c3cnn(C(C)C)c3n2)c1 (stereo not shown) [Example 8-5]
> 20000	CNCC(O)COc1cc(Cl)cc(-c2cc(N3CCOCC3)n3ncc(C(C)C)c3n2)c1 (stereo not shown) [Example 27-6]
> 20000	CNCC(O)COc1cc(Cl)cc(-c2cc(NC3CCOC3)n3ncc(C(C)C)c3n2)c1 (stereo not shown) [Example 28-6]
> 20000	CNCC(O)COc1cc(OC)cc(-c2cc(Nc3cncnc3)c3cnn(C(C)C)c3n2)c1 (stereo not shown) [Example 10-4]
> 20000	CNCC(O)COc1cccc(-c2cc(N(C)[C@@H]3CCOC3)n3ncc(C(C)C)c3n2)c1 (stereo partly shown) [Example 13-6]

What follows are compounds tested against T1, Human CARM1 (PRMT4) (Homo sapiens, UniProt Q86X55) (assay: CARM1 enzyme assay on peptide substrate (3H-SAM Flashplate)). Conditions: CARM1 0.25 nM, 3H-SAM 30 nM, peptide 250 nM; read-out: Biochem IC50.
T1 construct: Flag-CARM1-His was eluted with 200 ug/ml FLAG peptide in buffer A; made in house; host or cells: HEK 293F cells infected with recombinant baculovirus (pFastBacMam)
T1 sequence (Q86X55 other isoform, or with tags, fused parts or gaps): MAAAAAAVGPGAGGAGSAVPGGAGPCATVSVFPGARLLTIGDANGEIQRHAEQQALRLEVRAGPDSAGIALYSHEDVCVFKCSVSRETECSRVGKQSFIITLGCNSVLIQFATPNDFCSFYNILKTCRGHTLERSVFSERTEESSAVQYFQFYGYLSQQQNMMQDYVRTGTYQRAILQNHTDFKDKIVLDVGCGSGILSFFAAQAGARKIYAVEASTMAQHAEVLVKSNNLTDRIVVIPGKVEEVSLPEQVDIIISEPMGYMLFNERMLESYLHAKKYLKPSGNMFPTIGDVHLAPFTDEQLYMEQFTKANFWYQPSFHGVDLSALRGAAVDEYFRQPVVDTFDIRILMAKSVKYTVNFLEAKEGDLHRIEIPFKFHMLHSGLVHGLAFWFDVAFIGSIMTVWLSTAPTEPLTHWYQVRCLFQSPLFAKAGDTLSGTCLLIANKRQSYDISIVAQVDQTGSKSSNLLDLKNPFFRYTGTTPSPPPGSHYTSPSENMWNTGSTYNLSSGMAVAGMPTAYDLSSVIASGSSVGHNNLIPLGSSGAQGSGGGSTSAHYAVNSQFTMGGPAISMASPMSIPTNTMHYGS
Assay type: biochemical
Description: S-adenosylmethionine (SAM), S-adenosylhomocysteine (SAH), bicine, Tween20, dimethylsulfoxide (DMSO), bovine skin gelatin (BSG), sodium butyrate and Tris(2-carboxyethyl)phosphine hydrochloride solution (TCEP) were purchased from Sigma-Aldrich at the highest level of purity possible. ^3H-SAM was purchase from American Radiolabeled Chemicals with a specific activity of 80 Ci/mmol. 384-well streptavidin Flashplates were purchased from PerkinElmer.
Peptide representative of human histone H3 residues 16-30 was synthesized with an N-terminal linker-affinity tag motif and a C-terminal amide cap by 21st Century Biochemicals. The peptide was purified by high-performance liquid chromatography (HPLC) to greater than 95% purity and confirmed by liquid chromatography mass spectrometry (LC-MS). The sequence was Biot-Ahx-[…]-amide and contained a monomethylated arginine at position 26 (SEQ ID NO.:1).
Human CARM1 (PRMT4) (NM_199141.1) transcript clone was amplified from an HEK 293 cDNA library, incorporating a flanking 5′ sequence encoding a FLAG tag ([…]) (SEQ ID NO.:2) fused directly to Ala 2 of CARM1 and 3′ sequence encoding a hexa His sequence ([…]) (SEQ ID NO.:3) fused directly to Ser 608. The gene sequence encoding isoform1 containing a deletion of amino acids 539-561 was amplified subsequently and subcloned into pFastBacMam (Viva Biotech).
Recombinant baculovirus were generated according to Bac-to-Bac kit instructions (Life Technologies). Protein over-expression was accomplished by infecting exponentially growing HEK 293F cell culture at 1.3×10^6 cell/ml with virus (MOI=10) in the presence of 8 mM sodium butyrate. Infections were carried out at 37° C. for 48 hours, harvested by centrifugation, and stored at −80° C. for purification.
Column was washed with 500 mM NaCl in buffer A and Flag-CARM1-His was eluted with 200 ug/ml FLAG peptide in buffer A. Pooled fractions were dialyzed in 20 mM Tris, 150 mM NaCl, 5% glycerol and 1 mM DTT, pH 7.8. The purity of recovered protein was 94.
The assays were all performed in a buffer consisting of 20 mM Bicine (pH=7.6), 1 mM TCEP, 0.005% BSG, and 0.002% Tween 20, prepared on the day of use. Compounds in 100% DMSO (1 ul) were spotted into a polypropylene 384-well V-bottom plates (Greiner) using a Platemate Plus outfitted with a 384-channel head (Thermo Scientific). DMSO (1 ul) was added to Columns 11, 12, 23, 24, rows A-H for the maximum signal control and 1 ul of SAH, a known product and inhibitor of CARM1, was added to columns 11, 12, 23, 24, rows I—P for the minimum signal control. A cocktail (40 ul) containing the CARM1 enzyme was added by Multidrop Combi (Thermo-Fisher). The compounds were allowed to incubate with CARM1 for 30 min at room temperature, then a cocktail (10 ul) containing ^3H-SAM and peptide was added to initiate the reaction (final volume=51 ul). The final concentrations of the components were as follows: CARM1 was 0.25 nM, ^3H-SAM was 30 nM, peptide was 250 nM, SAH in the minimum signal control wells was 1 mM, and the DMSO concentration was 2%. The assays were stopped by the addition of non-radiolabeled SAM (10 ul) to a final concentration of 300 uM, which dilutes the ^3H-SAM to a level where its incorporation into the peptide substrate is no longer detectable. 50 ul of the reaction in the 384-well polypropylene plate was then transferred to a 384-well Flashplate and the biotinylated peptides were allowed to bind to the streptavidin surface for at least 1 hour before being washed once with 0.1% Tween20 in a Biotek ELx405 plate washer. The plates were then read in a PerkinElmer TopCount plate reader to measure the quantity of ^3H-labeled peptide bound to the Flashplate surface, measured as disintegrations per minute (dpm) or alternatively, referred to as counts per minute (cpm).
where dpm=disintegrations per minute, cmpd=signal in assay well, and min and max are the respective minimum and maximum signal controls. […]

IC50 [nM]	Compound
< 100	CC(C)c1cnn2c(N3CCOCC3)cc(-c3cccc(OC[C@@H](O)CN)c3)nc12 [Example 9-8]
< 100	CNCC(O)COc1cccc(-c2cc(N[C@@H]3CCOC3)n3ncc(C(C)C)c3n2)c1 (stereo partly shown) [Example 11-6]
< 100	CNCC(O)COc1cc(O)cc(-c2cc(N3CCOCC3)c3cnn(C(C)C)c3n2)c1 (stereo not shown) [Example 6-4]
100 to 1000	CNCC(O)COc1cccc(-c2cc(NS(=O)(=O)N(C)C)c3cnn(C(C)C)c3n2)c1 (stereo not shown) [Example 27-9]
100 to 1000	CNCC(O)COc1cccc(-c2nc(NCc3cccnc3)c3cnn(C4CC4)c3n2)c1 (stereo not shown) [Example 17-9]
100 to 1000	CC(C)n1ncc2c(N3CCOCC3)cc(-c3cccc(SCC(O)CN)c3)nc21 (stereo not shown) [Example 21-9]
< 100	CC(C)c1cnn2c(N3CCOCC3)cc(-c3cccc(OCC(O)CN)c3)nc12 (stereo not shown) [Example 4-8]
100 to 1000	CNCC(O)COc1cc(Cl)cc(-c2cc(N(C)C3CCOCC3)n3ncc(C(C)(C)C)c3n2)c1 (stereo not shown) [Example 9-9]
< 100	CNCC(O)COc1cc(OC)cc(-c2cc(NC3CCOCC3)n3ncc(C(C)C)c3n2)c1 (stereo not shown) [Example 34-6]
< 100	CNCC(O)COc1cccc(-c2nc(N3CCOCC3)c3cnn(C(C)C)c3n2)c1 (stereo not shown) [Example 8-5]
< 100	CNCC(O)COc1cc(Cl)cc(-c2cc(N3CCOCC3)n3ncc(C(C)C)c3n2)c1 (stereo not shown) [Example 27-6]
< 100	CNCC(O)COc1cc(Cl)cc(-c2cc(NC3CCOC3)n3ncc(C(C)C)c3n2)c1 (stereo not shown) [Example 28-6]
< 100	CNCC(O)COc1cc(OC)cc(-c2cc(Nc3cncnc3)c3cnn(C(C)C)c3n2)c1 (stereo not shown) [Example 10-4]
< 100	CNCC(O)COc1cccc(-c2cc(N(C)[C@@H]3CCOC3)n3ncc(C(C)C)c3n2)c1 (stereo partly shown) [Example 13-6]
< 100	CNCC(O)COc1cccc(-c2cc(N(C)C3CCOCC3)n3ncc(C(C)(C)C)c3n2)c1 (stereo not shown) [Example 16-8]
< 100	CNCC(O)COc1cc(OC)cc(-c2cc(N(C)C3CCOCC3)n3ncc(C4CC4)c3n2)c1 (stereo not shown) [Example 44-6]
< 100	CNCC(O)COc1cccc(-c2cc(N(C)[C@H]3CCOC3)n3ncc(C(C)C)c3n2)c1 (stereo partly shown) [Example 14-6]

Reference: patent US20170283440A1, “CARM1 INHIBITORS AND USES THEREOF” (Epizyme, Inc., priority 2014, published 2017)
